Measurements as given in patent US9745317B2, “Heterocyclic compounds and their use as dopamine D1 ligands” (PFIZER INC., priority 2014, dated 2017).
Structures can show the parent of a compound that is named as a salt. Where two headings read alike, the source gives them in different places.

Target: Human D1 Receptor (Homo sapiens (Human), UniProt P21728)
Test: Human D1 receptor binding assay ([^3H]-SCH23390 competition binding)
Conditions: read-out: Human D1 Receptor Binding, Ki (nM), Geometric mean of 2-4 determinations (unless otherwise indicated)
Experimental: The affinity of the compounds described herein was determined by competition binding assays similar to those described in Ryman-Rasmussen et al., “Differential activation of adenylate cyclase and receptor internalization by novel dopamine D1 receptor agonists”, Molecular Pharmacology 68(4):1039-1048 (2005).
D1 binding assays were performed using over-expressing LTK human cell lines. […] These ligand and tissue concentrations were used in time course studies to determine linearity and equilibrium conditions for binding. Binding was at equilibrium with the specified amount of tissue in 30 minutes at 37° C. […] The pellet was resuspended in assay buffer [50 mM Tris (pH 7.4@ RT) containing 4 mM MgSO4 and 0.5 mM EDTA]. […] Non-specific binding was determined by radioligand binding in the presence of a saturating concentration of (+)-Butaclamol (10 μM), a D1 antagonist. After a 30 minute incubation period at 37° C., assay samples were rapidly filtered through Unifilter-96 GF/B PEI-coated filter plates and rinsed with 50 mM Tris buffer (pH 7.4 at 4° C.). […] The IC50 value (concentration at which 50% inhibition of specific binding occurs) was calculated by linear regression of the concentration-response data in Microsoft Excel. Ki values were calculated according to the Cheng-Prusoff equation: […]

[1] = over-expressing LTK human cell lines, 0.5 nM [^3H]-SCH23390, 30 min at 37° C., footnote a = single determination, b = geometric mean of ≧5 determinations

Chain of Human D1 Receptor (P21728 whole entry): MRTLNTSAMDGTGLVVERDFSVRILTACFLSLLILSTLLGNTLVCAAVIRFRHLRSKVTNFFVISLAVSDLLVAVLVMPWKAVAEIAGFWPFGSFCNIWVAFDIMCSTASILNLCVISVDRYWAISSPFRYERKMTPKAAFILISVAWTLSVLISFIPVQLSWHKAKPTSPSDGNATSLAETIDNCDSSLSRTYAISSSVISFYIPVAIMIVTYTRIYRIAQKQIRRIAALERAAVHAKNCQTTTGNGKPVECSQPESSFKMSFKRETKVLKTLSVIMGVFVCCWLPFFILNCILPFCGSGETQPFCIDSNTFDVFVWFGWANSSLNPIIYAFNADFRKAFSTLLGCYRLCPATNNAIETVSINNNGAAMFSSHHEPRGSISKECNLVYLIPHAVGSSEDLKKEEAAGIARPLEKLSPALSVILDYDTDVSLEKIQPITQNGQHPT

Cc1cc(Oc2nccc3c2CCO3)ccc1-c1c(C)n[nH]c(=O)c1C [Example 7, (−)-5-[4-(2,3-Dihydrofuro[3,2-c]pyridin-4-yloxy)-2-methylphenyl]-4,6-dimethylpyridazin-3(2H)-one]
Ki [1]: 12.7 nM

Cc1cc(Oc2nccc3c2CCCN3)ccc1-c1c(C)n[nH]c(=O)c1C [Example 15, 4,6-Dimethyl-5-[2-methyl-4-(1,2,3,4-tetrahydro-1,6-naphthyridin-5-yloxy)phenyl]pyridazin-3(2H)-one]
Ki: 18.1 nM

Cc1n[nH]c(=O)c(C)c1-c1ccc(Oc2ncnc3c2CCN3)cc1 [Example 11, 5-[4-(6,7-Dihydro-5H-pyrrolo[2,3-d]pyrimidin-4-yloxy)phenyl]-4,6-dimethylpyridazin-3(2H)-one]
Ki: 60.4 nM

Cc1cc(Oc2nccc3c2CCN3)ccc1-c1c(C)ncnc1C [Example 2, 4-[4-(4,6-Dimethylpyrimidin-5-yl)-3-methylphenoxy]-2,3-dihydro-1H-pyrrolo[3,2-c]pyridine]
Ki: 78.1 nM

Cc1cc(Oc2nccc3c2CCCO3)ccc1-c1c(C)n[nH]c(=O)c1C [Example 14, 5-[4-(3,4-Dihydro-2H-pyrano[3,2-c]pyridin-5-yloxy)-2-methylphenyl]-4,6-dimethylpyridazin-3(2H)-one]
Ki: 70.3 nM

Cc1cc(Oc2nccc3c2C(O)CO3)ccc1-c1c(C)ncnc1C (stereo not drawn) [Example 17, 4-[4-(4,6-Dimethylpyrimidin-5-yl)-3-methylphenoxy]-2,3-dihydrofuro[3,2-c]pyridin-3-ol]
Ki: 28.9 nM

Cc1cc(Oc2ncnc3c2CCN3)ccc1-c1c(C)ncnc1C [Example 19, 4-[4-(4,6-dimethylpyrimidin-5-yl)-3-methylphenoxy]-6,7-dihydro-5H-pyrrolo[2,3-d]pyrimidine]
Ki [1]: 156 nM

Cc1cc(Oc2nccc3c2CCO3)ccc1-c1c(C)n[nH]c(=O)c1C [Example 5, 5-[4-(2,3-Dihydrofuro[3,2-c]pyridin-4-yloxy)-2-methylphenyl]-4,6-dimethylpyridazin-3(2H)-one]
Ki [1]: 14 nM

Cc1cc(Oc2ncnc3c2CCC3)ccc1-c1c(C)ncnc1C [Example 20, 4-[4-(4,6-dimethylpyrimidin-5-yl)-3-methylphenoxy]-6,7-dihydro-5H-cyclopenta[d]pyrimidine]
Ki [1]: 446 nM

Cc1n[nH]c(=O)c(C)c1-c1ccc(Oc2nccc3c2CCN3)cc1 [Example 4, 5-[4-(2,3-Dihydro-1H-pyrrolo[3,2-c]pyridin-4-yloxy)phenyl]-4,6-dimethylpyridazin-3(2H)-one]
Ki: 14 nM

Cc1cc(Oc2nccc3c2CCO3)ccc1-c1c(C)ncnc1C [Example 1, 4-[4-(4,6-Dimethylpyrimidin-5-yl)-3-methylphenoxy]-2,3-dihydrofuro[3,2-c]pyridine]
Ki [1]: 76.8 nM

Cc1cc(Oc2nccc3c2CCN3)ccc1-c1c(C)n[nH]c(=O)c1C (single isomer, unassigned; ent-2) [Example 10, 5-[4-(2,3-Dihydro-1H-pyrrolo[3,2-c]pyridin-4-yloxy)-2-methylphenyl]-4,6-dimethylpyridazin-3(2H)-one, ENT-2]
Ki [1]: 50.5 nM

Cc1cc(Oc2nccc3c2CCN3)ccc1-c1c(C)n[nH]c(=O)c1C [Example 8, 5-[4-(2,3-Dihydro-1H-pyrrolo[3,2-c]pyridin-4-yloxy)-2-methylphenyl]-4,6-dimethylpyridazin-3(2H)-one]
Ki [1]: 8.4 nM

Cc1cc(Oc2nccc3c2C(O)CO3)ccc1-c1c(C)n[nH]c(=O)c1C (stereo not drawn) [Example 16, 5-{4-[(3-Hydroxy-2,3-dihydrofuro[3,2-c]pyridin-4-yl)oxy]-2-methylphenyl}-4,6-dimethylpyridazin-3(2H)-one]
Ki [1]: 4.8 nM

Cc1cc(Oc2nccc3c2CCO3)ccc1-c1c(C)ncc(=O)n1C (single isomer, unassigned) [Example 22, (−)-6-[4-(2,3-dihydrofuro[3,2-c]pyridin-4-yloxy)-2-methylphenyl]-1,5-dimethylpyrazin-2(1H)-one]
Ki [1]: 202 nM

Cc1cc(Oc2nccc3c2CCO3)ccc1-c1c(C)ncc(=O)n1C (single isomer, unassigned) [Example 23, (+)-6-[4-(2,3-dihydrofuro[3,2-c]pyridin-4-yloxy)-2-methylphenyl]-1,5-dimethylpyrazin-2(1H)-one]
Ki [1]: 706 nM

Cc1cc(Oc2nccc3c2CCO3)ccc1-c1c(C)n[nH]c(=O)c1C [Example 6, (+)-5-[4-(2,3-Dihydrofuro[3,2-c]pyridin-4-yloxy)-2-methylphenyl]-4,6-dimethylpyridazin-3(2H)-one]
Ki [1]: 12.6 nM

Cc1c(-c2ccc(Oc3ncnc4c3CCN4)cc2)n(C)c(=O)[nH]c1=O [Example 27, 6-[4-(6,7-dihydro-5H-pyrrolo[2,3-d]pyrimidin-4-yloxy)phenyl]-1,5-dimethylpyrimidine-2,4(1H,3H)-dione]
Ki [1]: 44.4 nM

Cc1c(-c2ccc(Oc3nccc4c3CCO4)cc2)n(C)c(=O)[nH]c1=O [Example 13, 6-[4-(2,3-Dihydrofuro[3,2-c]pyridin-4-yloxy)phenyl]-1,5-dimethylpyrimidine-2,4(1H,3H)-dione, trifluoroacetate salt]
Ki [1]: 46.1 nM

Cc1cc(Oc2nccc3c2CCO3)ccc1-c1c(C)ncc(=O)n1C [Example 21, 6-[4-(2,3-dihydrofuro[3,2-c]pyridin-4-yloxy)-2-methylphenyl]-1,5-dimethylpyrazin-2(1H)-one]
Ki [1]: 82.5 nM

Cc1c(-c2ccc(Oc3nccc4c3CCN4)cc2)n(C)c(=O)[nH]c1=O [Example 12, 6-[4-(2,3-Dihydro-1H-pyrrolo[3,2-c]pyridin-4-yloxy)phenyl]-1,5-dimethylpyrimidine-2,4(1H,3H)-dione]
Ki [1]: 11.1 nM

Cc1n[nH]c(=O)c(C)c1-c1ccc(Oc2nccc3c2CCO3)cc1C#N [Example 26, 5-(2,3-dihydrofuro[3,2-c]pyridin-4-yloxy)-2-(3,5-dimethyl-6-oxo-1,6-dihydropyridazin-4-yl)benzonitrile]
Ki [1]: 162 nM

Cc1cc(Oc2nccc3c2CCN3)ccc1-c1c(C)ncc(=O)n1C (single isomer, unassigned) [Example 25, (−)-6-[4-(2,3-dihydro-1H-pyrrolo[3,2-c]pyridin-4-yloxy)-2-methylphenyl]-1,5-dimethylpyrazin-2(1H)-one]
Ki [1]: 75.8 nM

Cc1c(-c2ccc(Oc3ncnc4c3CCC4)cc2)n(C)c(=O)[nH]c1=O [Example 28, 6-[4-(6,7-dihydro-5H-cyclopenta[d]pyrimidin-4-yloxy)phenyl]-1,5-dimethylpyrimidine-2,4(1H,3H)-dione]
Ki [1]: 202 nM

Cc1cc(Oc2nccc3c2CCN3)ccc1-c1c(C)n[nH]c(=O)c1C (single isomer, unassigned; ent-1) [Example 9, 5-[4-(2,3-Dihydro-1H-pyrrolo[3,2-c]pyridin-4-yloxy)-2-methylphenyl]-4,6-dimethylpyridazin-3(2H)-one, ENT-1]
Ki [1]: 35.6 nM

Cc1cc(Oc2nccc3c2CCO3)ccc1-c1c(C)ncc2nccn12 [Example 18, 5-[4-(2,3-dihydrofuro[3,2-c]pyridin-4-yloxy)-2-methylphenyl]-6-methylimidazo[1,2-a]pyrazine]
Ki [1]: 52.1 nM

Cc1cc(Oc2nccc3c2CCN3)ccc1-c1c(C)ncc(=O)n1C (single isomer, unassigned) [Example 24, (+)-6-[4-(2,3-dihydro-1H-pyrrolo[3,2-c]pyridin-4-yloxy)-2-methylphenyl]-1,5-dimethylpyrazin-2(1H)-one]
Ki [1]: 201 nM
